# Measurements from paper PMC9969401, “Discovery of 2-(3-Benzamidopropanamido)thiazole-5-carboxylate Inhibitors of the Kinesin HSET (KIFC1) and the Development of Cellular Target Engagement Probes” (Journal of Medicinal Chemistry, 2023).
# Molecular target: T1, HSET in DLD1 4N cells (Homo sapiens, UniProt Q9BW19)
# T1 construct: overlapped with the signal from the antibody-probed endogenous HSET protein; endogenous in cells; host or cells: DLD1 4N cells
# T1 sequence (Q9BW19 1-673): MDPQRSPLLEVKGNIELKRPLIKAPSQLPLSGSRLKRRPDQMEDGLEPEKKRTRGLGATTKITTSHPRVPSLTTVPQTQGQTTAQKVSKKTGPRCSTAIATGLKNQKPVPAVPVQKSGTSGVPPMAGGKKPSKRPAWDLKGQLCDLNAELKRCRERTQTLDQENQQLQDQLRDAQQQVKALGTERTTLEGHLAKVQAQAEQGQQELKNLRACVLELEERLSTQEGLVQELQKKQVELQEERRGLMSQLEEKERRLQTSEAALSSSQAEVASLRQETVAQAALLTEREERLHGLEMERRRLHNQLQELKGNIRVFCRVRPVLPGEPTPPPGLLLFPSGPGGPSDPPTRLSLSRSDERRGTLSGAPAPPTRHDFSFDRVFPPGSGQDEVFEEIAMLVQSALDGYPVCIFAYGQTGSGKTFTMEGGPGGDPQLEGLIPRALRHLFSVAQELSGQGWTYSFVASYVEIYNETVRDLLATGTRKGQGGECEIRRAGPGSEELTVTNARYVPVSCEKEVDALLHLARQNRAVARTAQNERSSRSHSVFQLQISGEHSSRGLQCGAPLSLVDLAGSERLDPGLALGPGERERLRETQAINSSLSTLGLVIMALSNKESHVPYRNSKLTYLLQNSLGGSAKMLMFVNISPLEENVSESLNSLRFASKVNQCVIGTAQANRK
# Test: Click probe localization target engagement imaging in DLD1 4N cells
# Type: cell-based
# Conditions: for Average Pixel intensity: DLD1 4N, Tz-Cy5 800nM
# Procedure: The Cy-5 tetrazine dye selected for this experiment is not cell-permeable, thus fixation and permeabilization of cells were necessary prior to its addition. Experiments were conducted in DLD1 4N cells and, as a negative control, isogenic 2N DLD1 HSET KO cells in which HSET expression was prevented by the disruption of the HSET gene using CRISPR. Cells were treated first with proTAME for 2 h to accumulate mitotic events, followed by treatment with the TCO probe 40 for 45 min. The live cells were then fixed and permeabilized before treatment with the tetrazine-Cy5 dye and incubation to allow the IEDDA reaction to occur. Additionally, the cells were stained for the endogenous HSET protein using indirect immunofluorescence and imaged to observe the fluorescence from both the TCO probe and antibody-labeled HSET. […] A 3 μM concentration of the probe 40 gave an acceptable signal-to-noise ratio of around 2:1. Even under these optimal conditions, some residual uniform cytoplasmic Cy5 signal was observed within the cells. However, a clear Cy5 decoration of the mitotic spindle was seen, which overlapped with the signal from the antibody-probed endogenous HSET protein (Figures 2A and S6). […] We observed a 14–17-fold increase in signal in DLD1 4N cells treated with 40 relative to tetrazine-Cy5 alone. […] Comparing the intensity of click probe labeling coincident with the mitotic spindle in DLD1 4N cells to that in DLD1 HSET KO cells after both were treated with 40, we observed a twofold higher signal in the former.
# Direct target engagement of active inhibitor 36 was measured by calculating its capacity to displace the TCO-containing probe 40. 4N DLD1 cells and DLD1 HSET KO cells (negative control) were plated in 96-well ibidi μ-Clear plates (IB-89626, ibidi). Cells were first treated for 2 h with 8 μM pro-TAME (I-440–01M, R&D system) to accumulate mitotic cells and were then treated with 8 μM MG-132 (S2619, SelleckChem) and 3 μM 40, alone or together with active inhibitor 36 in DMEM media with 1% FBS for 45 min. Cells were then washed three times in DMEM, with the second wash being incubated for 10 min to ensure the optimal reduction of unspecific compound binding. After an additional PBS wash, cells were then fixed in 4% PFA/PBS (15670799, Thermo Scientific) prior to incubation with 400 nM tetraszine-Cy5 (CLK-015-05, Jena Biosciences) in 1.5% FBS/PBS for 10 min at room temperature. Cells were permeabilized by the addition of 0.5% TritonX-100/PBS for 5 min before being stained overnight for Pericentrin (1:1500 ab28144 mouse anti-PCNT, Abcam) and KIFC1 (1:1500 12313S rabbit anti-KIFC1, Cell Signaling Technologies). Secondary antibodies Alexa Fluor 488 donkey antirabbit and Alexa Fluor 555 donkey antimouse (1:1500, A21206 and A31570, respectively, Life Technologies) were added together with 1 μg/mL DAPI (D9542, Sigma) in 1.5% FBS in PBS.
# Plates were imaged at 40× using a Zeiss LSM980 confocal microscope with Airyscan 2. The subsequent analysis and quantification were performed using 3D image segmentation with the Arivis4D software. Mitotic cells were segmented by selecting for the highest density (integrated DAPI intensity/total volume), and the mitotic pole areas were segmented using the Pericentrin signal. The signal of the click probe (Cy5) and total KIFC1 (FITC) was measured on the mitotic pole area, and both were normalized to the control condition containing 40 probe alone. The ratio of probe per target (click probe pole integrated intensity signal/KIFC1 pole integrated intensity signal) was used to calculate the occupancy of the probe in the target protein and normalized to the control condition containing 40 probe alone (n > 100 for each replicate, two replicates per concentration point).
"displacement of TCO probe 40 from HSET in cells (in words) (competition with 3 μM 40, up to 10 μM 36)","Average Pixel intensity (5μM, Panel A: 3 quick washes at room temperature)","Average Pixel intensity (5μM, Panel B: 2 quick washes then 1 at 37 °C for 5 minutes)","Average Pixel intensity (5μM, Panel C: 2 quick washes then 1 at 37 °C for 10 minutes)","Average Pixel intensity (10μM, Panel A: 3 quick washes at room temperature)","Average Pixel intensity (10μM, Panel B: 2 quick washes then 1 at 37 °C for 5 minutes)","Average Pixel intensity (10μM, Panel C: 2 quick washes then 1 at 37 °C for 10 minutes)",Structure (SMILES)
dose-dependent manner,–,–,–,–,–,–,"CCCOC(=O)c1sc(NC(=O)C[C@H](CCCN(C)C)NC(=O)c2cccc(-c3noc(C)n3)c2)nc1C [Compound 36, Propyl (S)-2-(6-(Dimethylamino)-3-(3-(5-methyl-1,2,4-oxadiazol-3-yl)benzamido)hexanamido)-4-methylthiazole-5-carboxylate]"
–,5372,6057,4723,7167,7628,6337,"CCCOC(=O)c1sc(NC(=O)C[C@H](CCCN(C)C(=O)O[C@@H]2CC/C=C/CCC2)NC(=O)c2cccc(-c3noc(C)n3)c2)nc1C [Compound 38, Propyl 2-((S)-6-(((((S,E)-Cyclooct-4-en-1-yl)oxy)carbonyl)(methyl)amino)-3-(3-(5-methyl-1,2,4-oxadiazol-3-yl)benzamido)hexanamido)-4-methylthiazole-5-carboxylate]"
